Measurements published in patent US10232002B1, “Oncolytic HSV1 vectors and methods of using the same” (priority 2012, dated 2019).

Test system: U87ΔEGFR glioma cells

## Cn1nnc2c(C(N)=O)ncn2c1=O [TMZ, temozolomide]
  EC30 dose: 66 µM
